Assay [1] concerns the target T1, 20S Human Erythrocyte Proteasome (HEP) (Homo sapiens, UniProt P20618+P28074).
T1 construct: 20S Human Erythrocyte Proteasome (HEP), purchased from Immatics Biotechnologies Inc; purchased Immatics Biotechnologies Inc., Tübingen, Germany; host or cells: human erythrocytes (natural source)
Nature of the assay: Chymotrypsin-like activity of 20S Human Erythrocyte Proteasome (HEP), IC50 determination. The assay is classed as biochemical. The settings on record: assay of Example C, inhibition of HEP. In short, it runs like this: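 20S proteasome at 0.2 μg/mL (about 0.6 nM catalytic sites) in 20 mM Tris with 0.04% SDS, preincubated 15 min at 37° C with inhibitor before Suc-LLVY-AMC (100 μM final). AMC fluorescence read in the linear range; triplicates, IC50 from concentration series.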

In assay [2] the target is T2, proteasome in Molt-4 cells (human leukemia) (Homo sapiens, UniProt P20618+P28074).
T2 sequence (P28074 60-263): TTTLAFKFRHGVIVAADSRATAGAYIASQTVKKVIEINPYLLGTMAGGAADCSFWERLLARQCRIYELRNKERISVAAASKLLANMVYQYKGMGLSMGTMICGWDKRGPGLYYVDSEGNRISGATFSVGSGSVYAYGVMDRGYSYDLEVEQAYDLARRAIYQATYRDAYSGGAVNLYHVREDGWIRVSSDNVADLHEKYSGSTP
T2 sequence (P20618 29-241): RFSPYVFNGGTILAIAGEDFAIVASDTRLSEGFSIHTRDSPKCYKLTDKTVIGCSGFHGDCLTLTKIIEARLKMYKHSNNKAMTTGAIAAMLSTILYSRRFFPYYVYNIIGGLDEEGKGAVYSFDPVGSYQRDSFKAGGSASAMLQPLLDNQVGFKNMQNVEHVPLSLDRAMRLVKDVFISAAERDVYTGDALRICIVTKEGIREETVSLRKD
The assay is classed as cell-based. The settings on record: assay of Example E, inhibition of MOLT4; read-out: MOLT4 (EC50). In short, it runs like this: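 Intact Molt-4 cells (6×10^6 cells/mL) in HEPES-buffered saline were preincubated with inhibitor 15 min at 37 °C, then given cell-permeable MeOSuc-FLF-AFC at 25 μM final.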

Data on ten compounds can be found in patent US8546608B2, “Proteasome inhibitors and methods of using the same” (Cephalon, Inc., priority 2003, dated 2013).

The structures appear in SMILES notation. Where only a bound is given, the exact number is not on record here.

As a reminder, the IC50 is the point on the concentration scale where inhibition reaches its midpoint. The low end stands for greater potency, the high end for weaker potency. The term EC50 denotes the midpoint of the concentration-response curve. `CC(C)C[C@H](NC(=O)[C@H](CCCNC(=N)N[N+](=O)[O-])NC(=O)CSCc1ccccc1)B(O)O` [E.2.49, Boronic acid, [(1R)-1-[[(2S)-5-[[imino(nitroamino)methyl]amino]-2-[[2-[(phenylmethyl)sulfanyl]acetyl]amino]-1-oxopentyl]amino]-3-methylbutyl]]: the IC50 in assay [1] is less than 0.01 µM. The EC50 in assay [2] is greater than 10 µM.
For `CSCCC(=O)N[C@@H](CCCNC(=N)N[N+](=O)[O-])C(=O)N[C@@H](CC(C)C)B(O)O` [E.2.50, Boronic acid, [(1R)-1-[[(2S)-5-[[imino(nitroamino)methyl]amino]-2-[(3-Methylsulfanylpropanoyl)amino]-1-oxopentyl]amino]-3-methylbutyl]] the same measures were less than 0.01 µM and greater than 10 µM.
Take `CC(=O)N1CCC[C@H]1C(=O)N[C@@H](CCCNC(=N)N[N+](=O)[O-])C(=O)N[C@@H](CC(C)C)B(O)O` [E.2.51, Boronic acid, [(1R)-1-[[(2S)-5-[[imino(nitroamino)methyl]amino]-2-[((2S)-1-acetylpyrrolidine-2-carbonyl)amino]-1-oxopentyl]amino]-3-methylbutyl]]: the IC50 in assay [1] was less than 0.1 µM. The EC50 in assay [2] is greater than 10 µM.
In turn, `CC(C)C[C@H](NC(=O)[C@H](CCCNC(=N)N[N+](=O)[O-])NC(=O)/C=C/c1ccccc1Br)B(O)O` [E.2.52, Boronic acid, [(1R)-1-[[(2S)-5-[[imino(nitroamino)methyl]amino]-2-[[trans-3-(2-bromophenyl)acryl]amino]-1-oxopentyl]amino]-3-methylbutyl]] gave an IC50 in assay [1] of less than 0.01 µM. Moreover, in assay [2], the EC50 lay in the range of 2 to 10 µM.
Take `CC(C)C[C@H](NC(=O)[C@H](CCCNC(=N)N[N+](=O)[O-])NC(=O)Cn1cnnn1)B(O)O` [E.2.53, Boronic acid, [(1R)-1-[[(2S)-5-[[imino(nitroamino)methyl]amino]-2-[[2-(tetrazol-1-yl)acetyl]amino]-1-oxopentyl]amino]-3-methylbutyl]]: the IC50 in assay [1] was less than 0.1 µM. The EC50 in assay [2] was greater than 10 µM.
Take `CC(C)C[C@H](NC(=O)[C@H](CCCNC(=N)N[N+](=O)[O-])NC(=O)CSc1ncccn1)B(O)O` [E.2.54, Boronic acid, [(1R)-1-[[(2S)-5-[[imino(nitroamino)methyl]amino]-2-[[2-(pyrimidin-2-ylsulfanyl)acetyl]amino]-1-oxopentyl]amino]-3-methylbutyl]]: the IC50 in assay [1] is less than 0.01 µM. For the same compound, the EC50 in assay [2] was greater than 10 µM.
Turning to `CCc1ccc(OCC(=O)N[C@@H](CCCNC(=N)N[N+](=O)[O-])C(=O)N[C@@H](CC(C)C)B(O)O)cc1` [E.2.55, Boronic acid, [(1R)-1-[[(2S)-5-[[imino(nitroamino)methyl]amino]-2-[[2-(4-ethylphenoxy)acetyl]amino]-1-oxopentyl]amino]-3-methylbutyl]], in assay [1], the IC50 is less than 0.01 µM. Moreover, the EC50 in assay [2] was 2 to 10 µM.
Take `Cc1ccc(C)c(CC(=O)N[C@@H](CCCNC(=N)N[N+](=O)[O-])C(=O)N[C@@H](CC(C)C)B(O)O)c1` [E.2.56, Boronic acid, [(1R)-1-[[(2S)-5-[[imino(nitroamino)methyl]amino]-2-[[2-(2,5-dimethylphenyl)acetyl]amino]-1-oxopentyl]amino]-3-methylbutyl]]: the IC50 in assay [1] is less than 0.01 µM. For the same compound, the EC50 in assay [2] is 2 to 10 µM.
As to `CC(C)C[C@H](NC(=O)[C@H](CCCNC(=N)N[N+](=O)[O-])NC(=O)CCCCCCC(=O)c1ccccc1)B(O)O` [E.2.57, Boronic acid, [(1R)-1-[[(2S)-5-[[imino(nitroamino)methyl]amino]-2-[(8-oxo-8-phenyloctanoyl)amino]-1-oxopentyl]amino]-3-methylbutyl]], in assay [1], the IC50 was less than 0.01 µM. Besides, the EC50 in assay [2] lay within 2 to 10 µM.
The like results for `CC(C)C[C@H](NC(=O)[C@H](CCCNC(=N)N[N+](=O)[O-])NC(=O)CSc1ccc2ccccc2c1)B(O)O` [E.2.58, Boronic acid, [(1R)-1-[[(2S)-5-[[imino(nitroamino)methyl]amino]-2-[[2-(2-naphthylsulfanyl)acetyl]amino]-1-oxopentyl]amino]-3-methylbutyl]] were, in that order, less than 0.01 µM and 2 to 10 µM.
